Data as given in PubChem BioAssay AID489041 (Sanford-Burnham Center for Chemical Genomics, 2010).
Active and inactive are the calls of the source. How the calls were made is not given here.

Tested on: HEK-293T NF-kB luciferase reporter counterscreen, luminescence
Assay: NF-kB reporter inhibition in HEK-293T, dose response, counter-screen for T-cell antigen receptor NF-kB inhibitors, HEK-293T cells, luminescence (AID 489041)

Row | Compound | IC50
1 | O=C(Sc1cccc2cccnc12)c1ccc(F)cc1 | 34.2 µM (inactive)
2 | Cc1oc(-c2ccc(Cl)cc2)nc1CS(=O)CC(=O)NCCCN1CCN(Cc2ccccc2)CC1 (configuration not stated) | 4.13 µM
3 | Cc1cc(C)cc(NS(=O)(=O)c2ccc(-c3cnc(C4CC4)o3)cc2)c1 | 1.8 µM
4 | COc1ccc(Cl)cc1NC(=O)CN(C)CC(=O)Nc1ccccc1N1CCOCC1 | 12 µM
5 | COc1cccc(-c2cc(=O)c3cc(NC(=O)c4ccc(N(C)C)cc4)ccc3[nH]2)c1 | > 80 µM (inactive)
6 | Clc1cccc(Cl)c1/C=N/Nc1c(Cl)cncc1Cl | 36.7 µM (inactive)
7 | CCOC(=O)COc1cccc2c(=O)n(CC(=O)NCc3ccc(F)cc3)ccc12 | < 0.16 µM
8 | COc1ccc(C2=Nn3c(nnc3-c3ccccc3OC)SC2)cc1OC1CCCC1 | 3.68 µM
9 | CCCC(=O)NC(c1ccccc1Cl)c1ccc2cccnc2c1O (configuration not stated) | > 80 µM (inactive)
10 | COc1cc(C(=O)Nc2ccc3c(c2)ncn3C)cc(OC)c1OC | 14.7 µM
11 | COc1ccc(OC)c(-c2nnc3n2N=C(c2ccc(OC)c(OC)c2)CS3)c1 | 0.65 µM
12 | COc1ccc(/C=C2/C(=O)OCc3cc(OC)c(OC)cc32)cc1 | 12 µM
13 | O=C1C=CC(O)(c2cc(=O)c3c(O)cc(O)cc3o2)C=C1 | 20.5 µM (inactive)
14 | COc1ccc(NC(=O)/C(Cl)=C(/Cl)S(=O)Cc2ccc(Cl)cc2)cn1 (configuration not stated) | 7.65 µM
15 | Cc1ccc2[nH]c3c(c2c1)CCCC3NC(=O)CCl (configuration not stated) | 7.68 µM
16 | O=c1cc(-c2ccccc2)[nH]c2ccccc12 | 15.5 µM
17 | COc1ccccc1NC(=O)C1=C(C)Nc2nc3ccccc3n2C1c1cccs1 (configuration not stated) | 13.6 µM
18 | CN(C)c1ccc(-c2nn3c(-c4ccccc4Cl)nnc3s2)cc1 | 19.8 µM
19 | COc1cccc(/C=N/NC(=O)c2[nH]nc3c2CCc2ccccc2-3)c1O | 0.21 µM
20 | CC(C)CC[n+]1ccccc1/C=C/c1ccc(N(C)C)cc1 | 1.62 µM
21 | Cc1noc(C)c1CSc1nc2ccccc2c(=O)n1-c1ccccc1 | 9.04 µM
22 | CCSc1nc2ccccc2n1C(=O)/C=C\c1ccc(OC)c(OC)c1 | 18.2 µM
23 | COc1cccc2sc(Nc3nnc(-c4ccccc4Cl)o3)nc12 | > 80 µM (inactive)
24 | CCOC(=O)c1[nH]c(C)c(C(=O)c2cc(F)ccc2F)c1C | 6.54 µM
25 | COc1ccc(Nc2nc3cc(C)ccc3cc2C#N)c(OC)c1 | > 80 µM (inactive)
26 | Cc1ccc(S(=O)(=O)Nc2ccccc2-c2ccccc2)cc1 | 8.86 µM

Row | Compound | IC50
27 | CCOC(=O)N/N=C/c1c(C)nn(-c2cccc(C(F)(F)F)c2)c1Cl | 8.93 µM
28 | CC1(C)CC(N2CCN(C(c3ccccc3)c3ccccc3)CC2)=CC(=[N+]2CCCCC2)C1 | 1.25 µM
29 | CCCc1cc(C(=O)Nc2cc(C)ccc2O)no1 | > 80 µM (inactive)
30 | Cc1ccc(/C=N/NC(=O)c2c(C)nc3ccc(Br)cn23)cc1 | > 80 µM (inactive)
31 | O=C(Nc1ccc(N2CCOCC2)cc1)c1ccc(Cl)c(S(=O)(=O)N2CCCCC2)c1 | 1.15 µM
32 | Cc1nnc(N/N=C/c2ccccn2)[nH]c1=O | > 80 µM (inactive)
33 | Cc1csc2sc(-c3ccnc(SCC(=O)NCc4ccccc4)n3)c(C)c12 | 3.8 µM
34 | O=C(COc1ccc(C(=O)c2ccccc2)cc1)NCc1ccc(F)cc1 | 6.31 µM
35 | CCN(CC)S(=O)(=O)c1ccc(NC(=O)c2ccc(CN3CCOCC3)cc2)cc1 | 2.54 µM
36 | C=C(C)COc1ccc(-c2[nH]ncc2-c2ccc(OC)c(OC)c2)c(O)c1 | 5.03 µM
37 | COc1cc(C2C(C#N)=C(N)Oc3cc4c(cc32)OCO4)cc(OC)c1OC (configuration not stated) | 3.86 µM
38 | Cc1c(C(=O)N/N=C/c2c(O)ccc3ccccc23)nnn1-c1nonc1N | > 80 µM (inactive)
39 | O=C(c1ccccc1)c1nn(-c2ccc(Cl)cc2)c(=O)cc1C(F)(F)F | 5 µM
40 | Cc1ccc(Nc2nc(-c3c(C)nc4ccccn34)cs2)cc1 | 0.59 µM
41 | C[C@@H]1C=CC(=O)O[C@@H]1c1ccc(Cl)cc1 | 34 µM (inactive)
42 | O=C(Nc1nc(-c2ccccn2)cs1)c1ccc(Cl)s1 | 4.44 µM
43 | COc1ccc2c(C)nc(Nc3nc(-c4ccccc4)cc(=O)[nH]3)nc2c1 | 1.54 µM
44 | Cc1ccc2nc(SCC(=O)Nc3cc(C(F)(F)F)ccc3N3CCOCC3)[nH]c2c1 | 25.6 µM (inactive)
45 | CCn1c2ccccc2c2cc(NC(=O)c3cc(OC)cc(OC)c3)ccc21 | > 80 µM (inactive)
46 | Cc1ccc(S(=O)(=O)/N=C2\C=C(Nc3ccc(O)cc3)C(=O)c3ccccc32)cc1 | 0.78 µM
47 | CCC(C)(C)c1ccc(OCCCC[n+]2cccc(C)c2C)c(C(C)(C)CC)c1 | 4.01 µM
48 | CC(C)Nc1ccc(C(CC(N)=O)NC(=O)Cc2ccc(Br)cc2)cc1[N+](=O)[O-] (configuration not stated) | 68.8 µM (inactive)
49 | CC(C)c1ccc(/C=N/Nc2ccc(C(=O)O)cc2)cc1 | 4.37 µM
50 | COc1ccc([C@H]2CC(=O)C=C(c3c(OC)cccc3OC)C2)cc1 | 10.2 µM
51 | COc1cc(C2C(C#N)=C(N)Oc3cc(N(C)C)ccc32)cc2c1OCO2 (configuration not stated) | 3.56 µM
52 | C=C1C(=O)O[C@H]2C[C@@H](C)[C@@H]3C=CC(=O)[C@@]3(C)C[C@H]12 | 5.84 µM

Row | Compound | IC50
53 | CCOc1ccc(S(=O)(=O)NCc2ccccn2)cc1NC(=O)c1ccccc1 | 40.7 µM (inactive)
54 | O=C(CSc1nnc(Cn2nnc3ccccc32)o1)N(Cc1ccc(F)cc1)c1ccccc1 | 0.94 µM
55 | CC(=O)Nc1ccc(S(=O)(=O)N2CCSc3ccccc32)cc1 | 21.3 µM (inactive)
56 | CCc1ccc(/C=N/NC(=O)c2cc(-c3ccncc3)nc3ccccc23)s1 | 7.66 µM
57 | CC(C)CCOc1cccc(OCC(=O)Nc2ccncc2)c1 | 1.97 µM
58 | COc1ccc(/C=N\NC(=O)c2ccccc2F)cc1COc1ccc(F)cc1F | 8.43 µM
59 | CC(C)(C)c1cc(C=C(C#N)C#N)cc(C(C)(C)C)c1O | 13.1 µM
60 | COc1ccccc1C1=NOC(COc2ccc3c(C)cc(=O)oc3c2)C1 (configuration not stated) | 4.89 µM
61 | O=c1cc(-c2ccccc2)[nH]c2cc(F)ccc12 | 2.62 µM
62 | COc1cc(/C=C2/SC(=Nc3ccc(O)cc3)NC2=O)ccc1O | 3.51 µM
63 | COC(=O)C(Cc1ccc(N(CCCl)CCCl)cc1)N=Cc1ccccc1O (configuration not stated) | 43.4 µM (inactive)
64 | COc1ccc(C)c(Cn2c(-c3nonc3N)nc3ccccc32)c1 | 1.84 µM
65 | CCN(CC)c1ccc2nc3ccc(N)cc3[n+](-c3ccccc3)c2c1 | 2.72 µM
66 | O=[N+]([O-])c1ccc(-c2nc(C(Cl)Cl)c3ccccc3n2)cc1 | 54.5 µM (inactive)
67 | Cn1cc(/C=N/n2cnc3scc(-c4ccc(Cl)cc4)c3c2=O)c2ccccc21 | 0.22 µM
68 | Cc1ccsc1/C=N/NC(=O)c1cc(-c2ccncc2)nc2ccccc12 | 2.94 µM
69 | Cc1nc(Sc2nnnn2C)c2c3c(sc2n1)CCC3 | 31.4 µM (inactive)
70 | Cn1c2c(c(=O)n(C)c1=O)C(C(F)(F)F)(C(F)(F)F)N=C(c1ccc(Cl)cc1)N2 | 1.62 µM
71 | O=C1c2cccc3cc([N+](=O)[O-])cc(c23)C(=O)N1CCN1CCCC1 | > 80 µM (inactive)
72 | Cc1cc(-c2ccc(S(=O)(=O)N(C)c3ccc(C)c(C)c3)s2)on1 | 7.86 µM
73 | Cc1ccccc1NC1=C/C(=N\S(=O)(=O)c2cccs2)c2ccccc2C1=O | 0.41 µM
74 | COc1cccc(/C=N/Nc2ncnc3scc(-c4ccccc4)c23)c1O | 4.6 µM
75 | C=C1C(O)[C@@H]2O[C@]3(CC[C@H](/C=C/C(C)[C@@H]4CC(C)=CC5(O[C@H](C[C@@](C)(O)CO)CCC5O)O4)O3)CC[C@H]2O[C@@H]1C(O)CC(C)[C@H]1OC2(CCCCO2)CCC1C (some centres not stated) | < 0.16 µM
76 | COc1cc(C2=NOC(C(=O)NCc3ccc(F)cc3)C2)cc(OC)c1OC (configuration not stated) | 6.34 µM
77 | CCN(CC)c1ccc(/C=N/NC(=O)c2nnn(-c3nonc3N)c2C(C)C)c(O)c1 | 0.22 µM
78 | COc1cc(-c2noc(C)c2/C=C/c2ccc(OC(C)=O)cc2)cc(OC)c1OC | 2.78 µM

Row | Compound | IC50
79 | COc1ccc(OC)c2c1C(=O)C(Cl)=C(Cl)C2=O | 3.96 µM
80 | Cc1cc(-c2ccc(C)c(S(=O)(=O)N3CCN(c4ccc([N+](=O)[O-])cc4)CC3)c2)on1 | > 80 µM (inactive)
81 | COC(=O)C1CN(C#N)N(c2ccc(Cl)cc2)C12c1ccccc1-c1ccccc12 (configuration not stated) | 15.7 µM
82 | CC(=O)O[C@@]12CO[C@@H]1C[C@@H](O)[C@@]1(C)C(=O)[C@H](O)C3=C(C)[C@@H](OC(=O)[C@H](O)[C@@H](NC(=O)c4ccccc4)c4ccccc4)C[C@@](O)([C@@H](OC(=O)c4ccccc4)C12)C3(C)C (some centres not stated) | > 80 µM (inactive)
83 | C[C@]12CC[C@@H]3c4cc(O)c(O)cc4CC[C@H]3[C@@H]1CC[C@@H]2O | 45 µM (inactive)
84 | COc1ccc(OC)c(CCNC(=O)Cn2nc(C)c3c(C)n(-c4ccc(C)cc4)nc3c2=O)c1 | 1.28 µM
85 | O=C(c1ccc(Br)cc1)c1cc([N+](=O)[O-])ccc1N1CCOCC1 | 10.8 µM
86 | Cc1ccc(O)c(N=Nc2nccs2)c1 | > 80 µM (inactive)
87 | Cc1ccc(C)c(N=Nc2ccc(O)c3ncccc23)c1 | 21 µM (inactive)
88 | CCC(C)C(=O)N[C@@H](c1ccccc1)[C@@H](O)C(=O)O[C@H]1C[C@@]2(O)[C@@H](OC(=O)c3ccccc3)C3[C@](C)(C(=O)[C@H](OC(C)=O)C(=C1C)C2(C)C)[C@@H](O)C[C@H]1OC[C@@]31OC(C)=O (some centres not stated) | > 80 µM (inactive)
89 | CCCCCc1ccc(OCCCC[n+]2ccc(C)cc2)c(CCCCC)c1 | 5.84 µM
90 | COc1cc(-c2noc(C)c2C#Cc2ccsc2)cc(OC)c1OC | 4.06 µM
91 | CCOc1cc(C#N)c(NC(=O)c2cccnc2)cc1OCC | 37.7 µM (inactive)
92 | COc1ccc(NS(=O)(=O)c2ccc(-c3cnc(C4CC4)o3)cc2)cc1OC | 1 µM
93 | Cc1ccc(Nc2cc(C)nn2-c2nc(C)cc(=O)[nH]2)cc1 | > 80 µM (inactive)
94 | O=C(Nc1cccc2ccccc12)OC1C=CS(=O)(=O)C1 (configuration not stated) | 51.2 µM (inactive)
95 | COc1ccc(CC(=O)Nc2cccc(-c3nnc(-c4cccc(C)c4)o3)c2)cc1OC | 1.24 µM
96 | C(=N\Nc1nc2ccccc2s1)/c1ccccn1 | 1.45 µM
97 | CC1=Nc2ccccc2/C1=C\c1sc(Nc2ccc(C)cc2)nc1O | 3.6 µM
98 | Cc1ccc(C)c(NS(=O)(=O)c2ccc(-c3cnc(C4CC4)o3)cc2)c1 | 0.42 µM
99 | CCC(=O)N1c2ccc(S(=O)(=O)N3CCN(c4ccc([N+](=O)[O-])cc4)CC3)cc2CC1C (configuration not stated) | > 80 µM (inactive)
100 | CCCCn1c2c(c(=N)c3c1CCC3)CCC2 | 8.5 µM
101 | CC(=O)c1c(C)[nH]c(C(=O)OCC(=O)Nc2ccc(C)cc2[N+](=O)[O-])c1C | 0.79 µM
102 | CCCCCCCCCCn1ccc(=N)cc1 | 0.61 µM
